{"source": "patent US20090074750A1", "about": "“REGULATOR OF BASAL CELLULAR CALCIUM CONCENTRATION AND METHODS OF USE” (priority 2007, published 2009)", "system": "HeLa cells", "assay": "YFP-Stim2 localization after thapsigargin ER Ca^2+ store depletion (confocal imaging)", "type": "cell-based, human", "conditions": "1 uM thapsigargin", "procedure": "FIG. 3. Stim2 translocates to ER-PM junctions following ER Ca^2+ depletion. (A-C) YFP-Stim2 was expressed (˜24 hour) in HeLa (A), HUVEC, (B), and HEK293T (C) cells and confocal images were taken before and 2 minutes after 1 uM thapsigargin addition. […] HeLa cells were transfected for two days with ORAI1 siRNA and transfected for 24 hours with YFP-Stim2. Cells used in the analysis expressed YFP at 7.5 to 15 fold above background. N=10 sites.\nConfocal imaging was performed using a Zeiss spinning disk confocal. Cells were imaged in extracellar buffer as described in the Ca^2+ measurements section.\nWe employed the YFP tagged Stim2 construct to investigate its localization and activation mechanism. Cells with submaximal YFP-Stim2 expression were selected to minimize expression artifacts. […] We observed the same YFP-Stim2 puncta formation in HeLa, Huvec, and HEK293T cell lines (FIGS. 3A-C). We then compared Stim1 and Stim2 localization by co-transfection of CFP-Stim1 and YFP-Stim2 followed by thapsigargin-induced depletion of ER Ca^2+ stores. CFP-Stim1 and YFP-Stim2 were co-localized in the same puncta that have previously been characterized as ER-PM junction sites (FIG. 3D) (Liou et al., 2005, Wu et al., 2006). […]"}
{"smiles": "C/C=C(/C)C(=O)O[C@H]1C(C)=C2[C@H]([C@@H]1OC(=O)CCCCCCC)[C@@](C)(OC(C)=O)C[C@H](OC(=O)CCC)[C@@]1(O)[C@H]2OC(=O)[C@@]1(C)O", "note": "[thapsigargin]", "values": [{"measurement": "YFP-Stim2 translocation to PM localized puncta", "value": "rapid translocation"}]}
